Test results published in paper PMC11597774, “Investigation of Antimicrobial and Anti-Inflammatory Efficacy of Newly Synthesized Pyrogallol-Coumarin Hybrids: In Vitro and In Silico Studies” (Pharmaceutics, 2024).
≈ marks a conversion by molar mass, not a printed value.

Tests used:
S. aureus (isolate) = assay: Microdilution MIC/MMC with resazurin; format: cell-based, Staphylococcus aureus; conditions: for MIC: Staphylococcus aureus
Protocol: (§1) The antimicrobial activity of PCH-1 and PCH-2 was tested against 13 microorganisms. The experiment included four standard strains, Staphylococcus aureus ATCC 6538, Bacillus subtilis ATCC 6633, Proteus mirabilis ATCC 12453, and Pseudomonas aeruginosa ATCC 27853; five isolates, Staphylococcus aureus, Escherichia coli, Salmonella enterica, Klebsiella pneumoniae, and Bacillus subtilis; and one probiotic strain Lactobacillus plantarum 299V. Additionally, three fungal strains were tested, including one standard strain, Candida albicans ATCC 10231, and two isolates, Saccharomyces cerevisiae and probiotic strain Saccharomyces boulardii.
(§2) The bacterial suspensions were prepared using the direct colony method. The turbidity of the initial suspension was adjusted using a densitometer (DEN-1, BioSan, Latvia). When adjusted to the turbidity of the 0.5 McFarland standard, the bacterial suspension contains approximately 10^8 colony-forming units (CFU)/mL, and the yeast suspension contains approximately 10^6 CFU/mL. For the experiment, the initial suspension was further diluted at a 1:100 ratio in a sterile 0.85% saline solution.
(§3) The antimicrobial activity was assessed by determining the minimum inhibitory concentrations (MICs) and minimum microbicidal concentrations (MMCs) using the microdilution plate method with resazurin (Alfa Aesar GmbH & Co. (KG, Karlsruhe, Germany)). For this, 96-well plates were prepared by adding 100 μL of Mueller Hinton broth (Torlak, Belgrade, Serbia) for bacterial tests and Sabouraud broth (Torlak, Belgrade, Serbia) for yeast into each well. The tested PCH-1 and PCH-2 were dissolved in 10% dimethyl sulfoxide (DMSO) and then diluted into sterile distilled water. A 100 μL sample from the stock solution of the tested compound was then added to the first row of the plate, followed by twofold serial dilutions using a multichannel pipette. This produced a concentration range from 2.69 to 0.0025 µmol/L. The method is described in detail in the reported paper.
(§4) Each test setup included growth control and sterility control. […] Minimum microbicidal concentrations (MMCs) were determined as described in detail in the reported paper.

P. mirabilis ATCC 12453 [1] = assay: Microdilution MIC/MMC with resazurin; format: cell-based, Proteus mirabilis; conditions: for MIC: Proteus mirabilis, ATCC12453
Protocol: as §1, §2, §3, §4

S. boulardii = assay: Microdilution MIC/MMC with resazurin; format: cell-based, Saccharomyces boulardii; conditions: for MIC: Saccharomyces cerevisiae
Protocol: as §1, §2, §3, §4

P. mirabilis ATCC 12453 [2] = assay: Inhibition of biofilm formation (crystal violet); format: cell-based, Proteus mirabilis; conditions: for BIC90: P. mirabilis ATCC 12453, 48 h; for IC50: Proteus mirabilis, ATCC12453, P. mirabilis ATCC 12453, 48 h, read-out: BIC50
Protocol: (§5) The ability of S. aureus ATCC 6538, P. mirabilis ATCC 12453, and P. aeruginosa ATCC 27853 to form biofilms was assayed as described by O’Toole et al. (2000), with some modifications. Briefly, tissue culture 96-well microtiter plates (Sarstedt, Germany) were prepared by dispensing 100 µL of nutrient broth (i.e., Mueller Hinton broth) into each well. Then, 10 µL of spore suspension (1.0 McFarland for Gram-positive bacteria and 0.5 McFarland for Gram-negative bacteria) was added to each row. To encourage biofilm formation, all plates were incubated at 37 °C for 48 h, after which the content of each well was emptied and washed twice with 200 µL of sterile 0.85% saline to remove non-adherent cells. The biofilms formed were fixed by adding 100 µL of methanol until it evaporated completely, then stained with 0.1% (w/v) crystal violet (Fluka AG, Buchs, Switzerland) and left at room temperature for 20 min. The excess stain was washed away with deionized water, followed by […] of 96% ethanol. The optical densities (ODs) of the stained biofilms were measured with an ELISA plate reader (RT-2100C, Rayto, Shenzhen, China) at 630 nm. Control wells containing only broth were included to verify sterility and prevent nonspecific media binding. To account for background absorbance, OD readings from sterile medium, fixative, and dye were averaged and subtracted from all test measurements. All tests were conducted in duplicate. The tissue culture 96-well microtiter plates (Sarstedt, Germany) were prepared by dispensing 100 µL of nutrient broth (i.e., Mueller Hinton broth) into each well. From the stock solutions of tested PCH-1 and PCH-2 (at a concentration of 5.4 µmol/L), 100 µL was added to the first row of the microtiter plate. Twofold serial dilutions were then performed, followed by the addition of 10 µL of bacterial suspension to each well. The turbidity of the bacterial suspension was 0.5 McFarland for Gram-negative bacteria and 1.0 McFarland for Gram-positive bacteria. The microtiter plates prepared in this way were incubated at 37 °C for 48 h. The remaining steps of the experiment were carried out as outlined below. […] Only broth or broth with tested PCH-1 and PCH-2 served as controls to check sterility and nonspecific binding of media. To compensate for background absorbance, OD readings from sterile medium, extracts, fixative, and dye were averaged and subtracted from all test values. All tests were performed in duplicate.

P. aeruginosa ATCC 27853 = assay: Inhibition of biofilm formation (crystal violet); format: cell-based, Pseudomonas aeruginosa; conditions: for BIC90: P. aeruginosa ATCC 27853, 48 h; for IC50: Pseudomonas aeruginosa, ATCC27853, P. aeruginosa ATCC 27853, 48 h, read-out: BIC50
Protocol: as §5

C. albicans ATCC 10231 = assay: Microdilution MIC/MMC with resazurin; format: cell-based, Candida albicans; conditions: for MIC: Candida albicans, ATCC10231
Protocol: as §1, §2, §3, §4

B. subtilis ATCC 6633 = assay: Microdilution MIC/MMC with resazurin; format: cell-based, Bacillus subtilis; conditions: for MIC: Bacillus subtilis, ATCC6633
Protocol: as §1, §2, §3, §4

B. subtilis (isolate) = assay: Microdilution MIC/MMC with resazurin; format: cell-based, Bacillus subtilis; conditions: for MIC: Bacillus subtilis
Protocol: as §1, §2, §3, §4

L. plantarum 299V = assay: Microdilution MIC/MMC with resazurin; format: cell-based, Lactobacillus plantarum; conditions: for MIC: Lactiplantibacillus plantarum
Protocol: as §1, §2, §3, §4

S. enterica = assay: Microdilution MIC/MMC with resazurin; format: cell-based, Salmonella enterica; conditions: for MMC: S. enterica; for MIC: Salmonella enterica
Protocol: as §1, §2, §3, §4

E. coli = assay: Microdilution MIC/MMC with resazurin; format: cell-based, Escherichia coli; conditions: for MIC: Escherichia coli
Protocol: as §1, §2, §3, §4

S. aureus ATCC 25923 = assay: Microdilution MIC/MMC with resazurin; format: cell-based, Staphylococcus aureus; conditions: for MIC: Staphylococcus aureus, ATCC25923

C/C(NNC(=O)c1ccc(O)c(O)c1O)=C1\C(=O)Oc2ccccc2C1=O [PCH-1, (E)-N′-(1-(2,4-dioxochroman-3-ylidene)ethyl)-2,3,4-trihydroxybenzohydrazide]
MMC (S. aureus (isolate)): 2.70 mM | MIC (S. aureus (isolate)): 2700 µM (≈ 1000 µg/mL) | MMC (P. mirabilis ATCC 12453 [1]): 0.17 mM | MIC (P. mirabilis ATCC 12453 [1]): 80 µM (≈ 29.6 µg/mL) | MMC (S. boulardii): 2.70 mM | MIC (S. boulardii): 1350 µM (≈ 500 µg/mL) | BIC90 (P. mirabilis ATCC 12453 [2]): ˃2.70 mM | IC50 (P. mirabilis ATCC 12453 [2]): > 2700 µM | BIC90 (P. aeruginosa ATCC 27853): ˃2.70 mM | IC50 (P. aeruginosa ATCC 27853): > 2700 µM | MMC (C. albicans ATCC 10231): 0.34 mM | MIC (C. albicans ATCC 10231): 170 µM (≈ 63 µg/mL) | MMC (B. subtilis ATCC 6633): 2.70 mM | MIC (B. subtilis ATCC 6633): 2700 µM (≈ 1000 µg/mL) | MMC (B. subtilis (isolate)): 1.35 mM | MIC (B. subtilis (isolate)): 1350 µM (≈ 500 µg/mL) | MMC (L. plantarum 299V): 2.70 mM | MIC (L. plantarum 299V): 2700 µM (≈ 1000 µg/mL) | MMC (S. enterica): 0.17 mM | MIC (S. enterica): 170 µM (≈ 63 µg/mL) | MMC (E. coli): 0.34 mM | MIC (E. coli): 340 µM (≈ 126 µg/mL) | MMC (S. aureus ATCC 25923): 0.17 mM | MIC (S. aureus ATCC 25923): 170 µM (≈ 63 µg/mL)

C/C(NNC(=O)c1cc(O)c(O)c(O)c1)=C1\C(=O)Oc2ccccc2C1=O [PCH-2, (E)-N′-(1-(2,4-dioxochroman-3-ylidene)ethyl)-3,4,5-trihydroxybenzohydrazide]
MMC (S. aureus (isolate)): 1.35 mM | MIC (S. aureus (isolate)): 1350 µM (≈ 500 µg/mL) | MMC (P. mirabilis ATCC 12453 [1]): 0.17 mM | MIC (P. mirabilis ATCC 12453 [1]): 80 µM (≈ 29.6 µg/mL) | MMC (S. boulardii): 2.70 mM | MIC (S. boulardii): 2700 µM (≈ 1000 µg/mL) | BIC90 (P. mirabilis ATCC 12453 [2]): ˃2.70 mM | IC50 (P. mirabilis ATCC 12453 [2]): 2150 µM | BIC90 (P. aeruginosa ATCC 27853): ˃2.70 mM | IC50 (P. aeruginosa ATCC 27853): > 2700 µM | MMC (C. albicans ATCC 10231): 1.35 mM | MIC (C. albicans ATCC 10231): 170 µM (≈ 63 µg/mL) | MMC (B. subtilis ATCC 6633): 0.34 mM | MIC (B. subtilis ATCC 6633): 340 µM (≈ 126 µg/mL) | MMC (B. subtilis (isolate)): 1.35 mM | MIC (B. subtilis (isolate)): 1350 µM (≈ 500 µg/mL) | MMC (L. plantarum 299V): 0.67 mM | MIC (L. plantarum 299V): 670 µM (≈ 248 µg/mL) | MMC (S. enterica): 0.34 mM | MIC (S. enterica): 80 µM (≈ 29.6 µg/mL) | MMC (E. coli): 0.34 mM | MIC (E. coli): 170 µM (≈ 63 µg/mL) | MMC (S. aureus ATCC 25923): 0.34 mM | MIC (S. aureus ATCC 25923): 80 µM (≈ 29.6 µg/mL)
